# Source: US20120208781A1, “AMINOGLYCOSIDE DOSING REGIMENS” (Achaogen, Inc., priority 2009, published 2012)
# Entries after “also recorded” stand apart in the source; their conditions may differ.
# Legend:
# [1] = test system: 5 major human cytochrome P450 isoforms (CYPs); test: Inhibition of cytochrome P450 isoforms in vitro; type: in vitro ADME
# K. pneumoniae (KP) = test: MIC, broth microdilution, Brooklyn hospital isolates: K. pneumoniae; type: cell-based; conditions: Klebsiella pneumoniae; KP (n = 71)
# Procedure: In another study, the activity of Compound 1 against a collection of contemporary Gram-negative bacteria was determined. Unique patient isolates of P. aeruginosa (PA), A. baumannii (AB), K. pneumoniae (KP), E. coli (EC), and Enterobacter spp. (EB) from prior surveys at 16 Brooklyn, N.Y. hospitals were selected based on resistance patterns. The majority of isolates were fingerprinted by automated ribotyping. MICs were performed by broth microdilution. PCR was used to identify aminoglycoside-modifying enzymes (AMEs) in AB and KP and the KPC gene in Enterobacteriaceae (EN). The expression of the efflux genes mexA, C, E and X in PA, and adeB in AB was assessed by real-time RT-PCR.
# Acinetobacter spp. (ACB) = test: MIC, CLSI broth microdilution, worldwide isolates: Acinetobacter spp.; type: cell-based
# Description: In the first study, a total of 235 isolates were collected from medical centers worldwide and tested for susceptibility to Compound 1 and comparator agents by CLSI broth microdilution methods. […] Non-ENT GN pathogens included WT P. aeruginosa (PSA) and Acinetobacter spp. (ACB), and carbapenem (CARB)-R strains, including those with MBL and OXA enzymes, SA and coagulase-negative staphylococci (CoNS) included oxacillin-susceptible (MSSA/MS-CoNS) and —R (MRSA/MR-CoNS) strains.
# Minimum inhibitory concentrations (MIC) were determined by reference Clinical and Laboratory Standards Institute (CLSI) broth microdilution methods per M7-A7 [2006]. Briefly, serial two-fold dilutions of Compound 1 and comparator AGs (together, “the test compounds”) were prepared at 2× concentration in appropriate diluent. The dilutions were mixed in 96-well assay plates with bacterial inoculum. Bacteria were suspended in sterile saline and added to each assay plate to obtain a final concentration of 5.5×10^5 CFU/mL. The plates were incubated at 35° C. for 20 hours in ambient air. […] After incubation, assay plates were read using a microtiter plate reader at 600 nm.
# hearing function = test: 28-day guinea pig ototoxicity study of Compound 1: ABR and observations
# Procedure: Additionally, four groups of four male and four female animals were utilized for toxicokinetic (TK) sampling and received the control or test article in the same manner as the main study groups at respective dose levels of 0 (Vehicle Control), 8, 30, or 80 mg/kg.
# Physical examinations were conducted pretest on all animals and prior to study termination for main study animals. […] Blood samples for determination of the plasma concentrations of the test article were collected from TK animals at designated time points on Day 1 and Day 14. After blood collection, the TK animals were euthanized and the carcasses were discarded.
smiles,measurement,setting,value
"CN[C@@H]1[C@@H](O)[C@@H](O[C@@H]2[C@@H](O)[C@H](O[C@H]3OC(CNCCO)=CC[C@H]3N)[C@@H](N)C[C@H]2NC(=O)[C@@H](O)CCN)OC[C@]1(C)O [Compound 1, 6′-(2-Hydroxy-ethyl)-1-(4-amino-2(S)-hydroxy-butyryl)-sisomicin]",inhibition of the 5 major human CYPs,[1],did not inhibit
same,MIC50,K. pneumoniae (KP),0.5 µg/mL
same,MIC90,K. pneumoniae (KP),1 µg/mL
same,Cumulative % inhibited at Cmpd. MIC 1,Acinetobacter spp. (ACB); ACB (30),10.0%
same,Cumulative % inhibited at Cmpd. MIC 2,Acinetobacter spp. (ACB); ACB (30),23.3%
same,Cumulative % inhibited at Cmpd. MIC 4,Acinetobacter spp. (ACB); ACB (30),26.7%
same,Cumulative % inhibited at Cmpd. MIC 8,Acinetobacter spp. (ACB); ACB (30),66.7%
same,Cumulative % inhibited at Cmpd. MIC 16,Acinetobacter spp. (ACB); ACB (30),70.0%
same,Cumulative % inhibited at Cmpd. MIC 32,Acinetobacter spp. (ACB); ACB (30),90.0%
same,Cumulative % inhibited at Cmpd. MIC 64,Acinetobacter spp. (ACB); ACB (30),100.0%
same,Cumulative % inhibited at Cmpd. MIC ≦0.5,Acinetobacter spp. (ACB); ACB (30),3.3%
same,Cumulative % inhibited at Cmpd. MIC 1,"Acinetobacter spp. (ACB); ACB, CARB-R (20)",15.0%
same,Cumulative % inhibited at Cmpd. MIC 2,"Acinetobacter spp. (ACB); ACB, CARB-R (20)",30.0%
same,Cumulative % inhibited at Cmpd. MIC 4,"Acinetobacter spp. (ACB); ACB, CARB-R (20)",30.0%
same,Cumulative % inhibited at Cmpd. MIC 8,"Acinetobacter spp. (ACB); ACB, CARB-R (20)",70.0%
same,Cumulative % inhibited at Cmpd. MIC 16,"Acinetobacter spp. (ACB); ACB, CARB-R (20)",75.0%
same,Cumulative % inhibited at Cmpd. MIC 32,"Acinetobacter spp. (ACB); ACB, CARB-R (20)",95.0%
same,Cumulative % inhibited at Cmpd. MIC 64,"Acinetobacter spp. (ACB); ACB, CARB-R (20)",100.0%
same,Cumulative % inhibited at Cmpd. MIC ≦0.5,"Acinetobacter spp. (ACB); ACB, CARB-R (20)",5.0%
same,Cumulative % inhibited at Cmpd. MIC 1,"Acinetobacter spp. (ACB); ACB, WT (10)",0.0%
same,Cumulative % inhibited at Cmpd. MIC 2,"Acinetobacter spp. (ACB); ACB, WT (10)",10.0%
same,Cumulative % inhibited at Cmpd. MIC 4,"Acinetobacter spp. (ACB); ACB, WT (10)",20.0%
same,Cumulative % inhibited at Cmpd. MIC 8,"Acinetobacter spp. (ACB); ACB, WT (10)",60.0%
same,Cumulative % inhibited at Cmpd. MIC 16,"Acinetobacter spp. (ACB); ACB, WT (10)",60.0%
same,Cumulative % inhibited at Cmpd. MIC 32,"Acinetobacter spp. (ACB); ACB, WT (10)",80.0%
same,Cumulative % inhibited at Cmpd. MIC 64,"Acinetobacter spp. (ACB); ACB, WT (10)",100.0%
same,Cumulative % inhibited at Cmpd. MIC ≦0.5,"Acinetobacter spp. (ACB); ACB, WT (10)",0.0%
same,MIC50,"Acinetobacter spp. (ACB); Acinetobacter, ACB isolates",8 µg/mL
same,MIC90,"Acinetobacter spp. (ACB); Acinetobacter, ACB isolates",32 µg/mL
same,"animals with elevation of ABR thresholds (mild, 4 and 10 kHz, conductive)","hearing function; guinea pigs, 8 mg/kg dose group",one male and one female
same,ABR pre- to post-dosing hearing threshold shift,"hearing function; guinea pigs, 8, 30, 80 mg/kg for 14 days, 4, 10, 20 kHz",no significant pre- to post-dosing hearing threshold shift at any frequency; also recorded: did not have an adverse effect
same,functional hearing loss (ABR),"hearing function; guinea pigs, 14 days, up to 80 mg/kg/day",no functional hearing loss; also recorded: None of the animals treated with Compound 1 at any dose showed any functional hearing loss
same,mortality and general observations,"hearing function; guinea pigs, SC 8, 30, 80 mg/kg for 14 days","did not produce mortality and was without effect on clinical observations, body weights, physical examinations, ABR evaluations, macroscopic findings, middle ear assessments, or ossicle mobility"
